These results are taken from patent publication US8026282B2, “Phenoxyalkylcarboxylic acid derivatives in the treatment of irritable bowel syndrome” (Medicinova, Inc., priority 2004, dated 2011).

In one data set the test system is rat bladder. Nature of the data set: Ovalbumin-sensitized rat model of inflammation-induced bladder hyperactivity (cystometry). The class given is in vivo, Sprague-Dawley rats. To be noted: for NVC/minute: 60 minutes prior. The protocol:
Sprague-Dawley rats (n=50; […]) were utilized for this study. The animals were divided into 5 groups (n=10). The first group served as the control and the second group was sensitized with ovalbumin (OA). The third, fourth, and fifth groups were also sensitized as described but subjected to oral gavaging with Compound 1 prior to acute ovalbumin challenge.
Sensitization of the animals was accomplished with an intraperitoneal injection of a mixture of 1 mg OA and 100 mg aluminum hydroxide suspended in 1 mL of saline. Fourteen days later, these sensitized rats were anaesthetized with a subcutaneous injection of urethane (1.2 g/kg) for intravesical OA (10 mg/mL) administration and evaluation of bladder hyperactivity. The animals in group 1 received saline (control), group 2 animals received about 2 mL of OA (10 mg/mL OA in sterile saline) and animal groups 3-5 animals received oral 1 (10, 30, 50 mg/kg in gum acacia suspension) 60 minutes prior to acute OA challenge (2 mL of 10 mg/mL OA).
All animals were subjected to evaluation of bladder hyperactivity. Briefly, a 1 cm incision was made along the centerline of the lower ventral abdomen. The bladder was exteriorized, and catheterized by means of a polyethylene tube (PE 50, Clay Adams) inserted into the bladder dome and sutured in place using a 2-0 braided silk suture. The bladder was returned to the abdomen, with the catheter line escaping through the incision. The catheter was then connected to a pressure transducer (UFI, Morro Bay, Calif.) and in turn, connected to an infusion pump (Harvard Apparatus, MA). During the continuous filling bladder cystometry, the pressure was recorded with the transducer using the program LabVIEW (National Instruments, TX).
For cystometry (See, Chuang Y C, Chancellor M B, Seki S, Yoshimura N, Tyagi P, Huang L, Lavelle J P, De Groat W C and Fraser M O: Intravesical protamine sulfate and potassium chloride as a model for bladder hyperactivity. Urology (2003) 61:664-70), the bladder was first infused with warm 0.9% saline (37° C.) at 40 μL/min (2.4 mL/hr) and at least 20 minutes of stable voiding cycles were recorded during infusion. This process was followed by intravesical infusion of OA (10 mg/mL) and bladder contractions were recorded. Frequency of contractions (voids), inter-contractile interval (ICI), and non-voiding contractions (NVC) were calculated from these recordings.

The nature of data set [1]: Form present in human plasma. To be noted: metabolite of compound 1, human plasma. Type of data set: in vivo.

As for `CCCc1c(SCCCOc2ccc(C(C)=O)c(OCCCC(=O)O)c2CCC)ccc(C(C)=O)c1O` [Compound 1, 4-[6-acetyl-3-[3-(4-acetyl-3-hydroxy-2-propylphenylthio)propoxy]-2-propylphenoxy]butyric acid], the NVC/minute with rat bladder (Group 3: OA (10 mg/mL) infusion after oral 10 mg/kg, n = 10, NS compared to Group 2 (OA alone 0.9400 ± 0.2473)) amounted to 0.4700 ± 0.1221 NVC/minute; with rat bladder (Group 4: OA (10 mg/mL) infusion after oral 30 mg/kg, n = 9, P < 0.05 compared to Group 2) it was 0.3444 ± 0.06894 NVC/minute; with rat bladder (Group 5: OA (10 mg/mL) infusion after oral 50 mg/kg, n = 9, P < 0.05 compared to Group 2) it was 0.1778 ± 0.08296 NVC/minute. Also, the voiding frequency result in the data set on rat bladder (control (group 1) versus treatment groups (2-5)) is reported as “No significant differences”. Moreover, the “OA-induced changes in NVC and ICI” value with rat bladder (pre-treatment, oral 10, 30, 50 mg/kg) is reported as “dose-dependent inhibition”. The “protection against OA-induced changes (increase in NVC, decrease in ICI)” value in the data set with rat bladder (pre-treatment, preferably at 30 and 50 mg/kg) is “significant protection”.
Regarding `CCCc1c(SCCCOc2ccc(C(C)O)c(OCCCC(=O)O)c2CCC)ccc(C(C)=O)c1O` (stereo not shown) [Compound 2], in data set [1], the “form in human plasma” value is “dominant form”.
